The results in this text go back to ChEMBL document CHEMBL6074631, “Design, synthesis, and evaluation of pyranochromene derivatives as membrane targeting antibacterials against Gram-positive bacteria” (Bioorg Med Chem Lett, 2024).

Converted amounts (≈) assume the structure as drawn. The source made the active and inactive calls. The rule behind the calls is not given here.

The test system of series [1] is Staphylococcus aureus. Kind of series: Drug resistance, ratio of MIC for Staphylococcus aureus ATCC43300 after 18 passages exposure to MIC for Staphylococcus aureus ATCC43300 after first exposure. It counts as functional.
In series [2] the test system is Staphylococcus aureus. Kind of series: Antibacterial activity against Staphylococcus aureus ATCC25923 assessed as reduction in bacterial growth by broth microdilution assay. It counts as functional. In general terms: Broth dilution looks for growth in wells or tubes with falling amounts of substance.
For series [3], the system named is Staphylococcus aureus. Kind of series: Antibacterial activity against Staphylococcus aureus ATCC31007 assessed as reduction in bacterial growth by broth microdilution assay. It counts as functional.
In series [4] the test system is Staphylococcus aureus. Kind of series: Antibacterial activity against […] Staphylococcus aureus ATCC43300 assessed as reduction in bacterial growth by broth microdilution assay. Format: functional.
Series [5] has as its system Bacillus subtilis. In words: Antibacterial activity against […] Bacillus subtilis ATCC9372 assessed as reduction in bacterial growth by broth microdilution assay. It counts as functional.
Series [6] concerns Enterococcus faecalis. Kind of series: Antibacterial activity against penicillin-susceptible Enterococcus faecalis ATCC29212 assessed as reduction in bacterial growth by broth microdilution assay. Format: functional.
For series [7], the system named is Staphylococcus epidermidis. Kind of series: Antibacterial activity against vancomycin-susceptible Staphylococcus epidermidis ATCC12228 assessed as reduction in bacterial growth by broth microdilution assay. It counts as functional.
Series [8] has as its system Klebsiella pneumoniae. Kind of series: Antibacterial activity against erythromycin-susceptible Klebsiella pneumoniae ATCC10031 assessed as reduction in bacterial growth by broth microdilution assay. Format: functional.
In series [9] the test system is Acinetobacter baumannii. In words: Antibacterial activity against Acinetobacter baumannii ATCC19606 assessed as reduction in bacterial growth by broth microdilution assay. It counts as functional.
The subject of series [10] is Escherichia coli. In words: Antibacterial activity against Escherichia coli ATCC25922 assessed as reduction in bacterial growth by broth microdilution assay. Format: functional.
Series [11] has as its system Pseudomonas aeruginosa. In words: Antibacterial activity against penicillin-susceptible Pseudomonas aeruginosa ATCC27853 assessed as reduction in bacterial growth by broth microdilution assay. Format: functional.
The nature of series [12]: Hemolytic activity in RBC (unknown origin) assessed as hemolysis. It counts as toxicity, cell-based.
The subject of series [13] is Staphylococcus aureus. In words: Bactericidal activity against Staphylococcus aureus ATCC43300 at 2 to 16 ug/ml by time kill assay. It counts as functional, organism-based. The conditions noted are these: dose 2-16 µg/ml, time <= 12.0 hrs.
The subject of series [14] is Staphylococcus aureus. In words: Bactericidal activity against Staphylococcus aureus ATCC43300 measured upto 12 hrs by time kill assay. The conditions noted are these: dose 2-16 µg/ml. It counts as functional, organism-based.
Series [15] has as its system Staphylococcus aureus. Kind of series: Bactericidal activity against Staphylococcus aureus ATCC43300 assessed as log reduction in CFU at 16 ug/ml by time kill assay. It counts as functional. The conditions noted are these: dose 16 µg/ml.
The test system of series [16] is Staphylococcus aureus. In words: Bactericidal activity against Staphylococcus aureus ATCC43300 assessed as reduction in bacterial count at 16 ug/ml measured within 4 hrs by time kill assay relative to control. The settings on record: dose 16 µg/ml. Format: functional. Set-up: scale not given: the % may be the effect or the level left.
In series [17] the test system is Staphylococcus aureus. Kind of series: Bactericidal activity against Staphylococcus aureus ATCC43300 assessed as eradication of bacterial cell at 16 ug/ml measured within 8 hrs by time kill assay relative to control. It counts as functional. The conditions noted are these: dose 16 µg/ml.
Series [18] deals with Staphylococcus aureus. Kind of series: Antibacterial activity against Staphylococcus aureus ATCC43300 measured after 20 passages. Format: functional, organism-based.
The subject of series [19] is Staphylococcus aureus. Kind of series: Drug resistance, ratio of MIC for Staphylococcus aureus ATCC43300 after 20 passages exposure to MIC for Staphylococcus aureus ATCC43300 after first exposure. It counts as functional.
The test system of series [20] is Cell membrane. Kind of series: Disruption of cell membrane integrity in Staphylococcus aureus ATCC43300 assessed as red fluorescence by DAPI staining based fluorescence assay. Format: subcellular.
The subject of series [21] is Cell membrane. In words: Disruption of cell membrane integrity in Staphylococcus aureus ATCC43300 assessed as blue fluorescence by DAPI staining based fluorescence assay. Format: subcellular.
For series [22], the system named is Cell membrane. Kind of series: Induction of cytoplasmic membrane depolarization in Staphylococcus aureus ATCC43300 assessed as fold increase in fluorescence signal at 16 ug/ml measured at 20 mins DiSC3(5) dye-based fluorescence assay. Format: subcellular. The settings on record: dose 16.0 µg/ml.
Series [23] deals with Cell membrane. Kind of series: Induction of cytoplasmic membrane depolarization in Staphylococcus aureus ATCC43300 assessed as fold increase in fluorescence signal measured upto 20 mins DiSC3(5) dye-based fluorescence assay. Format: subcellular. The conditions noted are these: dose 2-16 µg/ml.
The subject of series [24] is Cell membrane. In words: Induction of cell membrane permeabilization in Staphylococcus aureus ATCC43300 assessed as increase in fluorescence intensity by propidium iodide dye-based fluorescence assay. Format: subcellular. The conditions noted are these: dose 2-16 µg/ml.
Series [25] concerns Cell membrane. Kind of series: Induction of cell membrane permeabilization in Staphylococcus aureus ATCC43300 assessed as fold increase in fluorescence intensity at 16 ug/ml by propidium iodide dye-based fluorescence assay. Format: subcellular. The settings on record: dose 16.0 µg/ml.
Series [26] has as its system Cell membrane. Kind of series: Induction of cell membrane disruption in Staphylococcus aureus ATCC43300 assessed as increase in protein leakage. The settings on record: dose 2-16 µg/ml. It counts as subcellular.
Series [27] relates to Cell membrane. Kind of series: Induction of cell membrane disruption in Staphylococcus aureus ATCC43300 assessed as increase in DNA leakage. It counts as subcellular. The settings on record: dose 2-16 µg/ml.
Series [28] concerns Cell membrane. In words: Induction of cell membrane disruption in Staphylococcus aureus ATCC43300 assessed as fold increase in protein leakage at 16 ug/ml. Format: subcellular. The conditions noted are these: dose 16.0 µg/ml.
Series [29] concerns Cell membrane. Kind of series: Induction of cell membrane disruption in Staphylococcus aureus ATCC43300 assessed as fold increase in DNA leakage at 16 ug/ml. It counts as subcellular. The conditions noted are these: dose 16.0 µg/ml.

In the case of `CCn1cc(C(=O)O)c(=O)c2cc(F)c(N3CCNCC3)cc21` [NORFLOXACIN], the “fold change (FC)” value in series [1] stood at 256.
Broadly, the MIC is the least concentration at which growth counts as inhibited. As a reminder, the HC50 is the concentration that lyses half of the red blood cells. For `CC(=O)c1c(OCC(=O)NCCN(C)C)c2c(c3c1OC(C)(CCC=C(C)C)C=C3)OC(C)(CCC=C(C)C)C=C2` (configuration not stated), the minimal inhibitory concentration (MIC) stood at 4 mg/L (≈ 7.08 µM) in series [2]; 2 mg/L (≈ 3.54 µM) in series [3]; 2 mg/L (≈ 3.54 µM) in series [4]; 2 mg/L (≈ 3.54 µM) in series [5]; 1 mg/L (≈ 1.77 µM) in series [6]; 1 mg/L (≈ 1.77 µM) in series [7]. Besides, the MIC in series [8] is more than 128 mg/L; in series [9], 128 mg/L (≈ 227 µM); in series [10], more than 128 mg/L; in series [11], more than 128 mg/L. In series [12] (rbc), the HC90 worked out at 205.8 µg/mL. Further, in series [12] (red blood cells), the HC50 is 112 µg/mL. In addition, the Activity entry in series [13] was “Time-dependent-effect”; in [14], “Dose-dependent-effect”; in series [16], 99.9%; in [17], 100%; in [23], “Dose-dependent-effect”; in [24] it was “Dose-dependent-effect”. In addition, the Activity result in series [26] and in series [27] was “Dose-dependent-effect” each time. Further, the “log(activity)” value in series [15] worked out at 8.78. Also, the outcome in series [18] was inactive. In addition, the “fold change (FC)” value in [19] was determined as 4; in series [22], 4.7; in series [25], 2.3; in [28] it was 6.3; in series [29], 6.7. Also, the outcome in series [20] and in series [21] was Active.
For the compound `CC[C@H](C)[C@H](NC(=O)CN)C(=O)NCC(=O)N[C@@H](C)C(=O)N[C@H](C(=O)N[C@@H](CC(C)C)C(=O)N[C@@H](CCCCN)C(=O)N[C@H](C(=O)N[C@@H](CC(C)C)C(=O)N[C@H](C(=O)N[C@H](C(=O)NCC(=O)N[C@@H](CC(C)C)C(=O)N1CCC[C@H]1C(=O)N[C@@H](C)C(=O)N[C@@H](CC(C)C)C(=O)N[C@H](C(=O)N[C@@H](CO)C(=O)N[C@@H](Cc1c[nH]c2ccccc12)C(=O)N[C@H](C(=O)N[C@@H](CCCCN)C(=O)N[C@@H](CCCNC(=N)N)C(=O)N[C@@H](CCCCN)C(=O)N[C@@H](CCCNC(=N)N)C(=O)N[C@@H](CCC(N)=O)C(=O)N[C@@H](CCC(N)=O)C(N)=O)[C@@H](C)CC)[C@@H](C)CC)[C@@H](C)O)[C@@H](C)O)C(C)C)C(C)C`, the result in series [20] and in series [21] was Active.
